Values quoted from earlier work, collected in patent publication US10539496B2, “Instrument and method for optical particle sensing” (Invitrox, Inc., priority 2011, dated 2020).

Tested on: platelets
Details: platelet inhibition in arterial thrombophilic diseases; share of drug-treated patients

Compound | treated patients who do not respond to treatment
CC(=O)Oc1ccccc1C(=O)O [ASA, Aspirin] | Approximately 25%
COC(=O)[C@H](c1ccccc1Cl)N1CCc2sccc2C1 [Plavix, clopidogrel bisulfate] | ~29%
